ChEMBL document CHEMBL3585263, “Novel Octahydropyrrolo[3,4-c]pyrroles Are Selective Orexin-2 Antagonists: SAR Leading to a Clinical Candidate” (J Med Chem, 2015)

Assays:
Orexin receptor type 2 [1] = molecular target: T1, Orexin receptor type 2 (Homo sapiens, UniProt O43614); test: Binding affinity to human OX2 receptor
T1 sequence (O43614 whole entry): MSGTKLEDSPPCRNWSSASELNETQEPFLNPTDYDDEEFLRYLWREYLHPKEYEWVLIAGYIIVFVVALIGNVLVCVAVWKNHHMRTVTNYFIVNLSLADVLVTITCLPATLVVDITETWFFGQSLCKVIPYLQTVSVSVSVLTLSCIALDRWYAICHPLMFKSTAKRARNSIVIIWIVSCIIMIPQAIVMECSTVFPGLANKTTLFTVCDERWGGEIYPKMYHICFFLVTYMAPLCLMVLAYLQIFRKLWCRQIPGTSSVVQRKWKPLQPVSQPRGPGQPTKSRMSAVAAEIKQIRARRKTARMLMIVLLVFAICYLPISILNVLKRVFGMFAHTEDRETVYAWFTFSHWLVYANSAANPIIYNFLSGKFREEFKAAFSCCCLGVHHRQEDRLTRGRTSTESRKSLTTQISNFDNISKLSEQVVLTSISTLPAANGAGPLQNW

[2] = molecular target: T2, Orexin/Hypocretin receptor type 1 (Homo sapiens, UniProt O43613); test: Binding affinity to human OX1 receptor
T2 sequence (O43613 whole entry): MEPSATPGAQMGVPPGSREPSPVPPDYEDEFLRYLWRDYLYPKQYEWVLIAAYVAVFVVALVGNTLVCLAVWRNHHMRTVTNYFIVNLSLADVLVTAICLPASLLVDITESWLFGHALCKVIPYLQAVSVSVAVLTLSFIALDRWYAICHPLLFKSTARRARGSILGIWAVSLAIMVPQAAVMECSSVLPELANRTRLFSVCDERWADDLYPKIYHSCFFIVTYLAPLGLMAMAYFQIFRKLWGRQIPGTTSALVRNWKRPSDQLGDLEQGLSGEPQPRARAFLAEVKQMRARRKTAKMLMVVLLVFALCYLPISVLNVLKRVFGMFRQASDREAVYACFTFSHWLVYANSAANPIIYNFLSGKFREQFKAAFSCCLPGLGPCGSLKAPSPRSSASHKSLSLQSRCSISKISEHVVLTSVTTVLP

Orexin receptor type 2 [3] = molecular target: T3, Orexin receptor type 2 (Rattus norvegicus, UniProt P56719); test: Binding affinity to rat OX2 receptor
T3 sequence (P56719 whole entry): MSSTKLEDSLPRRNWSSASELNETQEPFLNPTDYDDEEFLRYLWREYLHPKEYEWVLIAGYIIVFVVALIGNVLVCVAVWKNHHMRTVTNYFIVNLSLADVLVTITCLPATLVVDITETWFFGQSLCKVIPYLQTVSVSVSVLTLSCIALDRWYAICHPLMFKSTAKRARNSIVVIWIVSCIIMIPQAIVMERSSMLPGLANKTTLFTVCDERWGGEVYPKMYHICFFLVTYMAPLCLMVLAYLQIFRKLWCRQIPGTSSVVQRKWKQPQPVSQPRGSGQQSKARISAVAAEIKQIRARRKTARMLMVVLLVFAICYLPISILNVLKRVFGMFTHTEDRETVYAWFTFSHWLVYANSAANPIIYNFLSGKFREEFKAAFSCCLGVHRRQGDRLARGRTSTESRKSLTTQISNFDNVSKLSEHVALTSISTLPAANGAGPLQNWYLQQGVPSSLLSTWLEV

Rattus norvegicus [4] = test: Ex vivo OX2 receptor occupancy in Sprague-Dawley rat brain at 10 mg/kg, po after 30 mins by autoradiographic analysis; format: functional
[5] = Clearance in Sprague-Dawley rat at 10 mg/kg, po and 1 mg/kg, iv; format: ADME, organism-based; conditions: in vivo
[6] = Apparent permeability from apical to basolateral side in human Caco2/TC7 cells at 10 uM; conditions: Caco-2
[7] = Volume of distribution at steady state in Sprague-Dawley rat at 10 mg/kg, po and 1 mg/kg, iv; format: ADME, organism-based; conditions: in vivo, read-out: Vdss
[8] = molecular target: Voltage-gated inwardly rectifying potassium channel KCNH2 (Homo sapiens, UniProt Q12809); test: Inhibition of [3H]-astemizole binding to human ERG expressed in HEK293 cells
[9] = Half life in Sprague-Dawley rat at 1 mg/kg, iv; format: ADME, organism-based; conditions: in vivo
Rattus norvegicus [10] = test: Ex vivo OX2 receptor occupancy in Sprague-Dawley rat brain at 30 mg/kg, po after 30 mins by autoradiographic analysis; format: functional
[11] = Plasma protein binding in rat at 1 uM after 6 hrs by equilibrium dialysis method; format: ADME, cell-free; conditions: read-out: PPB (converted)
[12] = Oral bioavailability in Sprague-Dawley rat at 10 mg/kg; format: ADME, organism-based; conditions: in vivo
[13] = Plasma protein binding in human at 1 uM after 6 hrs by equilibrium dialysis method; format: ADME, cell-free; conditions: read-out: PPB (converted)
[14] = Apparent permeability from basolateral to apical side in human Caco2/TC7 cells at 10 uM; conditions: Caco-2
Cytochrome P450 1A2 = molecular target: T4, Cytochrome P450 1A2 (Homo sapiens, UniProt P05177); test: Inhibition of CYP1A2 in human liver microsomes using phenacetin as substrate by LC-MS/MS analysis
T4 sequence (P05177 whole entry): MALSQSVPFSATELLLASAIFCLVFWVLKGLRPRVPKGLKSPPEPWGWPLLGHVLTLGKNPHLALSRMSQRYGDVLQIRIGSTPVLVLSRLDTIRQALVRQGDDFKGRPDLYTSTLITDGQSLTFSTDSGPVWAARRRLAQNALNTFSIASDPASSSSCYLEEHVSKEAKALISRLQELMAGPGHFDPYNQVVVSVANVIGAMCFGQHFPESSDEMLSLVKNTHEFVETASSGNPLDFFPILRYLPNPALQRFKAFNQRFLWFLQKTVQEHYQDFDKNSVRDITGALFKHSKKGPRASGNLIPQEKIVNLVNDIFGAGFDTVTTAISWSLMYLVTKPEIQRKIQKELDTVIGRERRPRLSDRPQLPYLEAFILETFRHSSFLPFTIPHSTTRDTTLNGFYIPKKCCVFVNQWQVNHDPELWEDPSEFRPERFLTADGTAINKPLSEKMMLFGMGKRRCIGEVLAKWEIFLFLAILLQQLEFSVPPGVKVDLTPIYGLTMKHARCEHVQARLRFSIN

[15] = Protein binding in rat brain at 5 uM after 5 hrs by equilibrium dialysis method; format: ADME, tissue-based; conditions: read-out: PB (converted)
Rattus norvegicus [16] = test: Ex vivo OX2 receptor occupancy in Sprague-Dawley rat brain at 30 mg/kg, po after 15 mins by autoradiographic analysis; format: functional
[17] = Cmax in Sprague-Dawley rat at 10 mg/kg, po; format: ADME, organism-based; set-up: dose 10 mg/kg, route oral; conditions: in vivo
[18] = Metabolic stability in human liver microsomes assessed as extraction ratio at 1 uM measured over 1 hr by LC-MS/MS analysis
[19] = Metabolic stability in rat liver microsomes assessed as extraction ratio at 1 uM measured over 1 hr by LC-MS/MS analysis

Voltage-gated inwardly rectifying potassium channel KCNH2, sequence (Q12809 whole entry): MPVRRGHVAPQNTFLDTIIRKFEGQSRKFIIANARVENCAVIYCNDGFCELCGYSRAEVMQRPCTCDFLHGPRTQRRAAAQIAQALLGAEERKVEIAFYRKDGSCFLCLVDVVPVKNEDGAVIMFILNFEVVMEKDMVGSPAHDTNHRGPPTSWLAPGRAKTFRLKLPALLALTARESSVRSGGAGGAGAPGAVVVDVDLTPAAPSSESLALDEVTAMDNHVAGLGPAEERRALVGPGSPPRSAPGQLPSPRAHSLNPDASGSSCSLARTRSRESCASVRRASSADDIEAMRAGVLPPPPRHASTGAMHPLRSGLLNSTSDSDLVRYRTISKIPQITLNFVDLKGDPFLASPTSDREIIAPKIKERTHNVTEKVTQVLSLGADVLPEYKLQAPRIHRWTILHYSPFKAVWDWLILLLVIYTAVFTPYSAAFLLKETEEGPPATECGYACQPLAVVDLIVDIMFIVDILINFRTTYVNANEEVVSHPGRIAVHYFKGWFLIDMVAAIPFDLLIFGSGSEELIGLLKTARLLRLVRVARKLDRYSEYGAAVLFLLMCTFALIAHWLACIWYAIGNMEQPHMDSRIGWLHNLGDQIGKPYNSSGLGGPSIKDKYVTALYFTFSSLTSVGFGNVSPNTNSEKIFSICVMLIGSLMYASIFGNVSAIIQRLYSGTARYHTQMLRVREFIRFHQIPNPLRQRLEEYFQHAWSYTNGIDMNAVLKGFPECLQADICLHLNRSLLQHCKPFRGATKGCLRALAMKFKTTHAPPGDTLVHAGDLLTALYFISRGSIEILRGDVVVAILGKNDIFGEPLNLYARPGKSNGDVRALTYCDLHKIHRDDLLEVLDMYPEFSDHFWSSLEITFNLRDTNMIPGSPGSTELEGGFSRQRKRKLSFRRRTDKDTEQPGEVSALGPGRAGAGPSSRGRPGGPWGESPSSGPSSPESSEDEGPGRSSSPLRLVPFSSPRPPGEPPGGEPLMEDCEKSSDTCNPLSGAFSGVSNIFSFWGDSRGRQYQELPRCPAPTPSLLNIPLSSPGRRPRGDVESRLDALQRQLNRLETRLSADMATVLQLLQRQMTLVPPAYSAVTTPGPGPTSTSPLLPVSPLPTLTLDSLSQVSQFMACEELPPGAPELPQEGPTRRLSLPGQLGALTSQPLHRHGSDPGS

With `Cc1ccnc(N2C[C@H]3CN(C(=O)c4ccccc4-c4ccccc4)C[C@H]3C2)n1` the Ki (Orexin receptor type 2 [1]) was 899 nM and the Ki [2] was > 10000 nM.
`Cc1cc(C)nc(N2C[C@H]3CN(C(=O)c4ccccc4-c4cccs4)C[C@H]3C2)n1` showed a Ki (Orexin receptor type 2 [1]) of 9.8 nM, a Ki (Orexin receptor type 2 [3]) of 7 nM and an Occ (Rattus norvegicus [4]) of 26%. It also gave a Ki [2] of 471 nM.
In the case of `COc1ccc(C(=O)N2C[C@@H]3CN(c4nc5ccc(C)cc5s4)C[C@@H]3C2)c(OC)c1`, the Ki (Orexin receptor type 2 [1]) is reported as 680 nM and the Ki [2] is reported as > 10000 nM.
Work on `Cc1cc(C)nc(N2C[C@H]3CN(C(=O)c4c(C)ccc5ccccc45)C[C@H]3C2)n1` yielded a Ki (Orexin receptor type 2 [1]) of 51 nM and a Ki [2] of 1800 nM.
In the case of `COc1ccc(C(=O)N2C[C@@H]3CN(c4nc5ccc(F)cc5s4)C[C@@H]3C2)c(OC)c1`, the Ki (Orexin receptor type 2 [1]) is reported as 746 nM and the Ki [2] is reported as > 10000 nM.
Work on `COc1cc(OC)nc(N2C[C@H]3CN(C(=O)c4ccccc4-c4cccs4)C[C@H]3C2)n1` yielded a Ki (Orexin receptor type 2 [1]) of 41 nM and a Ki [2] of 257 nM.
With `Cc1cc(C)nc(N2C[C@H]3CN(C(=O)c4ccc(F)cc4-n4nccn4)C[C@H]3C2)n1` the clearance [5] was 65.5 mL/min/kg, the Papp A→B at 10 µM [6] was 58.1 ×10⁻⁶ cm/s and the Vd [7] was 1.5 L/kg. For the same compound, the IC50 [8] was > 10000 nM, the half-life [9] was 22.2 min and the Occ (Rattus norvegicus [10]) was 72%. It also gave a fraction unbound at 6 h, 1 µM [11] of 0.116, a bioavailability [12] of 18% and a Ki (Orexin receptor type 2 [3]) of 14 nM. The fraction unbound at 6 h, 1 µM [13] was 0.075, the Papp B→A at 10 µM [14] was 26.8 ×10⁻⁶ cm/s and the IC50 (Cytochrome P450 1A2) was 9300 nM.
In the case of `Cc1cc(C)nc(N2C[C@H]3CN(C(=O)c4cc(F)ccc4-n4nccn4)C[C@H]3C2)n1`, the IC50 [8] is reported as > 10000 nM.
Compound `O=C(c1ccccc1-c1ccccc1)N1C[C@@H]2CN(c3nc4ccc(F)cc4s3)C[C@@H]2C1` has a Ki (Orexin receptor type 2 [1]) of 294 nM and a Ki [2] of 925 nM.
`O=C(c1ccccc1-c1ccccc1)N1C[C@@H]2CN(c3nc4ccccc4s3)C[C@@H]2C1` gave a Ki (Orexin receptor type 2 [1]) of 687 nM and a Ki [2] of 1400 nM.
Compound `O=C(c1ccccc1-c1ccccc1)N1C[C@@H]2CN(c3cnc4ccccc4n3)C[C@@H]2C1` has a Ki (Orexin receptor type 2 [1]) of 240 nM and a Ki [2] of 1320 nM.
For `Cc1cc(C)nc(N2C[C@H]3CN(C(=O)c4cccc(F)c4-n4nccn4)C[C@H]3C2)n1`, the clearance [5] was 57 mL/min/kg, the fraction unbound at 5 h, 5 µM [15] was 0.156 and the Papp A→B at 10 µM [6] was 62.3 ×10⁻⁶ cm/s. For the same compound, the Vd [7] was 0.7 L/kg, the IC50 [8] was 6000 nM and the half-life [9] was 12 min. The Occ (Rattus norvegicus [16]) was 49%, the fraction unbound at 6 h, 1 µM [11] was 0.273 and the bioavailability [12] was 21%. The fraction unbound at 6 h, 1 µM [13] was 0.095, the Papp B→A at 10 µM [14] was 49.7 ×10⁻⁶ cm/s and the IC50 (Cytochrome P450 1A2) was 3100 nM.
In the case of `COc1ccc(C(=O)N2C[C@@H]3CN(c4nc5ccc(OC)cc5s4)C[C@@H]3C2)c(OC)c1`, the Ki (Orexin receptor type 2 [1]) is reported as 875 nM and the Ki [2] is reported as > 10000 nM.
With `COc1ccnc(N2C[C@H]3CN(C(=O)c4c(C)ccc5ccccc45)C[C@H]3C2)n1` the Ki (Orexin receptor type 2 [1]) was 141 nM and the Ki [2] was 3300 nM.
For `Cc1cc(C)nc(N2C[C@H]3CN(C(=O)c4ccccc4-n4nccn4)C[C@H]3C2)n1`, the clearance [5] was 52.1 mL/min/kg, the Vd [7] was 0.7 L/kg and the IC50 [8] was > 10000 nM. For the same compound, the half-life [9] was 16.2 min, the Occ (Rattus norvegicus [10]) was 67% and the Cmax [17] was 148 ng/mL. It also gave a bioavailability [12] of 8% and a Ki (Orexin receptor type 2 [3]) of 2 nM.
For `CCOc1ccc2ccccc2c1C(=O)N1C[C@@H]2CN(c3nc(C)cc(C)n3)C[C@@H]2C1`, the Ki (Orexin receptor type 2 [1]) was 27 nM and the Ki [2] was 557 nM.
With `O=C(c1ccccc1-c1ccccc1)N1C[C@@H]2CN(c3nccc(-c4ccccc4)n3)C[C@@H]2C1` the Ki (Orexin receptor type 2 [1]) was 421 nM and the Ki [2] was 765 nM.
With `O=C(c1ccccc1-n1cccn1)N1C[C@@H]2CN(c3cnc4ccccc4n3)C[C@@H]2C1` the Ki (Orexin receptor type 2 [1]) was 768 nM and the Ki [2] was > 10000 nM.
Work on `O=C(c1ccccc1-c1cccs1)N1C[C@@H]2CN(c3cnc4ccccc4n3)C[C@@H]2C1` yielded a Ki (Orexin receptor type 2 [1]) of 106 nM and a Ki [2] of 623 nM.
In the case of `Cc1cc(C)nc(N2C[C@H]3CN(C(=O)c4ccccc4-c4cccc(F)c4)C[C@H]3C2)n1`, the Ki (Orexin receptor type 2 [1]) is reported as 180 nM and the Ki [2] is reported as > 10000 nM.
Work on `COc1ccc(C(=O)N2C[C@@H]3CN(c4nc5ccc(Cl)cc5s4)C[C@@H]3C2)c(OC)c1` yielded a Ki (Orexin receptor type 2 [1]) of 510 nM and a Ki [2] of 5300 nM.
`O=C(c1ccccc1-c1cccs1)N1C[C@@H]2CN(c3nc4ccc(F)cc4s3)C[C@@H]2C1` gave a Ki (Orexin receptor type 2 [1]) of 137 nM and a Ki [2] of 267 nM.
For `Cc1cc(C)nc(N2C[C@H]3CN(C(=O)c4ccccc4-c4ncn[nH]4)C[C@H]3C2)n1`, the clearance [5] was 150 mL/min/kg, the Vd [7] was 3.9 L/kg and the IC50 [8] was > 10000 nM. The half-life [9] was 22.8 min, the Occ (Rattus norvegicus [16]) was 0% and the hepatic extraction ratio at 1 h, 1 µM [18] was 0.73. For the same compound, the Ki (Orexin receptor type 2 [1]) was 30 nM, the bioavailability [12] was 22% and the Ki (Orexin receptor type 2 [3]) was 39 nM. It also gave a hepatic extraction ratio at 1 h, 1 µM [19] of 0.51 and a Ki [2] of 3650 nM.
`COc1ccc(-n2nccn2)c(C(=O)N2C[C@@H]3CN(c4nc(C)cc(C)n4)C[C@@H]3C2)c1` gave an IC50 [8] of 8100 nM and a Ki (Orexin receptor type 2 [3]) of 38 nM.
`Cc1cc(C)nc(N2C[C@H]3CN(C(=O)c4c(C)cccc4-n4nccn4)C[C@H]3C2)n1` gave an IC50 [8] of 6900 nM and a Ki (Orexin receptor type 2 [3]) of 12 nM.
